Source: PubChem BioAssay AID248 (DTP/NCI, 2004)
“And” between values parts separate entries of the source, which are not always exact repeats. Equal entries are not always repeated. Inconclusive results and toxic doses are left out. Cut-off read from the data, not from the text of the source: active = T/C of 150% or more; inactive = T/C below 125%.

System: L1210 leukemia ip in BDF1 mice, survival T/C
Experiment: NCI In Vivo Anticancer Drug Screen. Data for tumor model L1210 Leukemia (intraperitoneal) in B6D2F1 (BDF1) mice
Settings: endpoint: mean survival time, higher = longer survival
Outline: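 Tumor was transplanted into mice, which were then dosed with test compound or vehicle alone. Survival was recorded for each group, and the treated figure was expressed relative to the control figure.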

[1] = dose: 100.0 mg/kg/injection, schedule: Q04DX003 (ip), vehicle: Klucel (hydroxypropylcellulose) (HPC)
[2] = dose: 200.0 mg/kg/injection, schedule: Q04DX003 (ip), vehicle: Klucel (hydroxypropylcellulose) (HPC)
[3] = dose: 400.0 mg/kg/injection, schedule: Q04DX003 (ip), vehicle: Klucel (hydroxypropylcellulose) (HPC)
[4] = dose: 100.0 mg/kg/injection, schedule: Q01DX009 (ip), vehicle: Klucel (hydroxypropylcellulose) (HPC)
[5] = dose: 200.0 mg/kg/injection, schedule: Q01DX009 (ip), vehicle: Klucel (hydroxypropylcellulose) (HPC)
[6] = dose: 400.0 mg/kg/injection, schedule: Q01DX009 (ip), vehicle: Klucel (hydroxypropylcellulose) (HPC)
[7] = dose: 100.0 mg/kg/injection, schedule: Q01DX001 (ip), vehicle: Klucel (hydroxypropylcellulose) (HPC)
[8] = dose: 200.0 mg/kg/injection, schedule: Q01DX001 (ip), vehicle: Klucel (hydroxypropylcellulose) (HPC)
[9] = dose: 400.0 mg/kg/injection, schedule: Q01DX001 (ip), vehicle: Klucel (hydroxypropylcellulose) (HPC)

Measured: T/C

ClCc1cc(Cl)c(Cl)cc1Cl
inactive: dose: 25.0 mg/kg/injection, schedule: Q01DX009 (ip), vehicle: acetone 93 % of control | dose: 50.0 mg/kg/injection, schedule: Q01DX009 (ip), vehicle: acetone 92 % of control | dose: 100.0 mg/kg/injection, schedule: Q01DX009 (ip), vehicle: acetone 90 % of control | dose: 100.0 mg/kg/injection, schedule: Q04DX003 (ip), vehicle: acetone 100 % of control | dose: 150.0 mg/kg/injection, schedule: Q01DX009 (ip), vehicle: acetone 95 % of control

Cc1c(C)c(O)c(Br)c(C)c1O (tested in a mixture with another compound)
inactive: dose: 100.0 mg/kg/injection, schedule: Q04DX003 (ip), vehicle: saline with Tween-80 89 % of control

COc1ccc(C=Nc2ccc(OC(C)=O)cc2)cc1
inactive: dose: 176.0 mg/kg/injection, schedule: Q01DX009 (ip), vehicle: other 105 % of control | dose: 264.0 mg/kg/injection, schedule: Q01DX009 (ip), vehicle: other 120 % of control

CCC(CS(=O)(=O)O)[N+](=O)[O-] (stereo unspecified)
inactive: dose: 100.0 mg/kg/injection, schedule: Q04DX002 (ip), vehicle: saline 96 % of control | dose: 200.0 mg/kg/injection, schedule: Q04DX002 (ip), vehicle: saline 96 % of control | dose: 400.0 mg/kg/injection, schedule: Q04DX002 (ip), vehicle: saline 107 % of control

COC(=O)c1cc(OC)nc(OC)c1
inactive: [1] 102 % of control | [2] 110 % of control | [3] 96 % of control

C(=N\C(/N=C/c1ccco1)c1ccco1)/c1ccco1
inactive: [4] 94 % of control | [1] 96 % of control | [5] 105 % of control | [2] 98 % of control | [6] 97 % of control | [3] 100 % of control

CCOC(=O)N1C(C(=O)c2ccccc2)N(Cc2ccccc2)C(c2ccccc2)N1C(=O)OCC (stereo unspecified)
inactive: dose: 50.0 mg/kg/injection, schedule: Q01DX001 (ip), vehicle: saline 105 % of control | dose: 100.0 mg/kg/injection, schedule: Q01DX001 (ip), vehicle: saline 97 % of control | dose: 200.0 mg/kg/injection, schedule: Q01DX001 (ip), vehicle: saline 105 % of control | dose: 400.0 mg/kg/injection, schedule: Q01DX001 (ip), vehicle: saline 100 % of control

O=c1[nH]cc(Cl)cc1Cl
inactive: [4] 94 % of control | [5] 94 % of control | [6] 108 % of control

COc1ccc([N+](=O)[O-])cc1NC(=O)Nc1cc(C)on1
inactive: [7] 91 % of control | [4] 96 % of control and 87 % of control | dose: 100.0 mg/kg/injection, schedule: Q04DX002 (ip), vehicle: Klucel (hydroxypropylcellulose) (HPC) 103 % of control and 91 % of control | [1] 92 % of control | [8] 95 % of control | [5] 98 % of control and 91 % of control | dose: 200.0 mg/kg/injection, schedule: Q04DX002 (ip), vehicle: Klucel (hydroxypropylcellulose) (HPC) 97 % of control and 91 % of control | [2] 89 % of control | [9] 86 % of control | [6] 95 % of control and 98 % of control | dose: 400.0 mg/kg/injection, schedule: Q04DX002 (ip), vehicle: Klucel (hydroxypropylcellulose) (HPC) 97 % of control | [3] 96 % of control

O=C(Nc1ccc(Cl)cc1)Nc1cccc2ccccc12
inactive: [4] 91 % of control | [1] 94 % of control | [5] 89 % of control | [2] 94 % of control | [6] 97 % of control | [3] 93 % of control

CCCCCCCCCCCCCSCCCCCCSCCCCCCCCCCCCC
inactive: [7] 89 % of control | [8] 96 % of control | [9] 98 % of control

Nc1[nH]cnc(=S)c1NC=O
inactive: dose: 100.0 mg/kg/injection, schedule: Q01DX001 (ip), vehicle: acetone 92 % of control | dose: 200.0 mg/kg/injection, schedule: Q01DX001 (ip), vehicle: acetone 92 % of control | dose: 400.0 mg/kg/injection, schedule: Q01DX001 (ip), vehicle: acetone 88 % of control
